In patent US6440723B1, “Arrays with modified oligonucleotide and polynucleotide compositions” (Oligos Etc. Inc., priority 1998, dated 2002):

Experiments:
[1] = system: Regular RNA 20-mer oligonucleotide SEQ ID NO:1; assay: Duplex melting temperature (Tm), SEQ ID NO:1 strand as Regular RNA; assay type: binding; conditions: SEQ ID NO:1 strand Regular RNA; four μM each strand, 50 mM NaCl, 10 mM PO4 buffer, pH 7.4
Description: (§1) The stability of duplexes having 2′-substituted nucleotides versus duplexes without such modification was tested by examining the Tm of these complexes. four μM each of 20-mer oligonucleotide (5′-ggt ggt tcc tcc tca gtc gg-3′; SEQ ID NO:1) and its complement (5′-ccg act gag aag gaa cca cc-3′; SEQ ID NO:2) were bound in a solution of 50 mM NaCl, 10 mM PO4 buffer, pH 7.4. Each of the nucleotides of the oligonucleotide had the same 2′ group. Following binding, the melting temperature was determined as described (See L. L. Cummins et al., Nucleic Acids Research 23:2019-2024 (1995)).

[2] = system: 2′-OMe RNA oligo 150-mer (SEQ ID NO:3); assay: Fluorescence signal of 12-mer probes bound to captured 150-mer on streptavidin plate; assay type: binding; conditions: individual probes, fluorescence (Oregon Green 488)
Excerpt: A 2′-OMe RNA oligo 150-mer (SEQ ID NO:3) was captured using a 15-mer 2′-OMe oligo tethered through biotin-streptavidin onto a white 96-well plate. Observations were taken of individual 2′-OMe 12-mers complementary to portions of the 150-mer labeled on the 5′-end with Oregon Green 488. Once the signal levels were obtained for single sequences, various combinations of the 12-mers were used to determine whether the fluorescence signal from the probes was additive. The sequences of these probes were chosen at 12-base steps through the sequence of the 150-mer.

Avidin = Avidin (Gallus gallus, UniProt P02701); conditions: cited from earlier work
[3] = system: polyclonal antibodies to cAMP; conditions: cited from earlier work
[4] = system: Regular DNA 20-mer oligonucleotide SEQ ID NO:1; assay: Duplex melting temperature (Tm), SEQ ID NO:1 strand as Regular DNA; assay type: binding; conditions: SEQ ID NO:1 strand Regular DNA; four μM each strand, 50 mM NaCl, 10 mM PO4 buffer, pH 7.4
Description: as §1

folate binding proteins = conditions: cited from earlier work

Chain of Avidin (P02701 25-152): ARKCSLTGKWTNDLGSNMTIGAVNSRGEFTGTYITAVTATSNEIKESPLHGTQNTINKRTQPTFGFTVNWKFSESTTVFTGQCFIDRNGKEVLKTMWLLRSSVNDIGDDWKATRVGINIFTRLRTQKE

Molecule: 2′-O-methyl: 20-mer SEQ ID NO:2 (5′-ccg act gag aag gaa cca cc-3′), each nucleotide 2′-O-methyl
- Tm [1]: 79 °C

Molecule: 5′-AUAGGGAAUCCU-butanol-3′ [Probe (6)]
- Signal [2]: 810

Molecule: 5′-CCACCUCACGAA-butanol-3′ [Probe (2)]
- Signal ([2]; listed as (2)): 297

Molecule: 5′-CCACCUCACGAA-butanol-3′ [Probe (9)]
- Signal ([2]; listed as (9)): 514

Molecule: 5′-CGAGUCCUGCAC-butanol-3′ [Probe (5)]
- Signal [2]: 85

Molecule: 5′-GCCGUACUGUAG-butanol-3′ [Probe (3)]
- Signal [2]: 256

Molecule: 5′-GGGGCCGUACUG-butanol-3′ [Probe (10)]
- Signal [2]: 46

Molecule: 5′-GUGCGGGUGAUG-butanol-3′ [Probe (4)]
- Signal [2]: 115

Molecule: 5′-UGCAGUACAUGU-butanol-3′ [Probe (7)]
- Signal [2]: 466

Molecule: 5′-UGUUCACCAUGC-butanol-3′ [Probe (1)]
- Signal ([2]; listed as (1)): 124

Molecule: 5′-UGUUCACCAUGC-butanol-3′ [Probe (8)]
- Signal ([2]; listed as (8)): 133

Molecule: COC(=O)CCCCC1SCC2C1NC(=O)N2C(=O)OC (centres unmarked) [1′-N-methoxy-carbonylbiotin methyl ester]
- Binding affinity with Avidin (Avidin): 10^7 M^−1

Molecule: O=C(O)CCCCC1SCC2NC(=S)NC21 (centres unmarked) [2-thiobiotin]
- Binding affinity with Avidin (Avidin): 10^13 M^−1

Molecule: COC(=O)CCCCC1SCC2NC(=O)N(C(=O)OC)C21 (centres unmarked) [3′-N-methoxy-carbonylbiotin methyl ester]
- Binding affinity with Avidin (Avidin): 10^9 M^−1

Molecule: O=C(O)CCCC[C@@H]1SC[C@@H]2NC(=O)N[C@@H]21 [Biotin]
- Binding affinity with Avidin (Avidin): 10^15 M^−1

Molecule: C[C@@H]1NC(=O)N[C@@H]1CCCCCC(=O)O [Dethiobiotin]
- Binding affinity with Avidin (Avidin): 10^13 M^−1

Molecule: N=C1N[C@H]2[C@H](CS[C@H]2CCCCC(=O)O)N1 [Iminobiotin]
- Binding affinity with Avidin (Avidin): 10^11 M^−1

Molecule: Nc1ncnc2c1ncn2[C@@H]1O[C@@H]2COP(=O)(O)O[C@H]2[C@H]1O [cAMP, cyclic AMP]
- Ka of polyclonal antibodies to cAMP [3]: 10^10 to 10^12 M^−1

Molecule: Regular DNA: 20-mer SEQ ID NO:2 (5′-ccg act gag aag gaa cca cc-3′) as regular DNA [reference compound]
- Tm [1]: 66 °C

Molecule: p-ethoxy 2′-O-methyl: 20-mer SEQ ID NO:2 (5′-ccg act gag aag gaa cca cc-3′) as p-ethoxy 2′-O-methyl
- Tm [1]: 71 °C

Molecule: p-ethoxy DNA: 20-mer SEQ ID NO:2 (5′-ccg act gag aag gaa cca cc-3′) as p-ethoxy DNA
- Tm [4]: 55 °C

Molecule: p-ethoxy RNA: 20-mer SEQ ID NO:2 (5′-ccg act gag aag gaa cca cc-3′) as p-ethoxy RNA
- Tm [1]: 56 °C

Molecule: tetrahydrofolate
- Ka (folate binding proteins): 3e+11 M⁻¹
